In patent publication US9376425B2, “Heterocyclic compounds as MDM2 inhibitors for the treatment of cancer” (AMGEN INC., priority 2011, dated 2016) one finds IC50 data, which are given here for 15 compounds.

By IC50 is commonly meant the concentration that inhibits the measured activity by half.

Where only a bound is given, the exact number is not on record here.

The target of the assay is T1, human MDM2 (GST-hMDM2 1-188), interaction with biotinylated-p53 (1-83) (Homo sapiens, UniProt Q00987).
T1 construct: Amino acid residues 1-188 of human MDM2 were expressed; made in house; host or cells: Escherichia coli
T1 sequence (Q00987 1-188): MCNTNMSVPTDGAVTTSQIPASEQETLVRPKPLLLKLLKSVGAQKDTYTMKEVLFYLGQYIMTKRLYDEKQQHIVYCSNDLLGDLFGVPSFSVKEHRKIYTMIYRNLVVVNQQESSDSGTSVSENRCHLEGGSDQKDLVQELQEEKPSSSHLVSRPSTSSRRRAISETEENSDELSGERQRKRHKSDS
The assay can be described thus: improved HTRF assay (HTRF2 assay), inhibition of HDM2-p53 interaction. The format is binding. Conditions: 0.2 nM GST-hMDM2, 0.5 nM biotinylated-p53, 100 mM KF. In outline: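 Time-resolved fluorescence (HTRF) read after >4 h equilibration with SA-XLent/anti-GST cryptate/KF detection reagents. Reaction: compound plus GST-hMDM2 for 20 min at room temperature, then E. coli-expressed biotinylated p53 residues 1-83 for 60 min, 2% DMSO final. Inhibition expressed versus nutlin-3.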
On the technique in general: In TR-FRET formats the signal depends on donor and acceptor labels being close together.
With `CC[C@@H](CS(=O)(=O)CC1CC1)N1C(=O)[C@@H](CC(=O)O)O[C@H](c2cccc(Cl)c2)[C@H]1c1ccc(Cl)cc1` (single isomer, unassigned) [Example 191, 2-((2R,5R,6R)-6-(3-chlorophenyl)-5-(4-chlorophenyl)-4-((S)-1-((cyclopropylmethyl)sulfonyl)butan-2-yl)-3-oxomorpholin-2-yl)acetic acid or 2-((2S,5R,6R)-6-(3-chlorophenyl)-5-(4-chlorophenyl)-4-((S)-1-((cyclopropylmethyl)sulfonyl)butan-2-yl)-3-oxomorpholin-2-yl)acetic acid], the IC50 stood at 5 nM.
On to `CN(C(C)(C)C)S(=O)(=O)C[C@H](C1CC1)N1C(=O)[C@@H](CC(=O)O)O[C@H](c2cccc(Cl)c2)[C@H]1c1ccc(Cl)cc1` (single isomer, unassigned) [Example 300, 2-((2R,5R,6R)-4-((S)-2-(N-(tert-Butyl)-N-methylsulfamoyl)-1-cyclopropylethyl)-6-(3-chlorophenyl)-5-(4-chlorophenyl)-3-oxomorpholin-2-yl)acetic acid or 2-((2S,5R,6R)-4-((S)-2-(N-(tert-butyl)-N-methylsulfamoyl)-1-cyclopropylethyl)-6-(3-chlorophenyl)-5-(4-chlorophenyl)-3-oxomorpholin-2-yl)acetic acid], for which the 50% inhibitory concentration (IC50) is < 1 nM.
In turn, `CC[C@@H](CN(c1ccccc1F)S(=O)(=O)C1CC1)N1C(=O)[C@H](CC(=O)NS(=O)(=O)C(C)C)O[C@H](c2cccc(Cl)c2)[C@H]1c1ccc(Cl)cc1` (single isomer, unassigned) [Example 258, 2-((2S,5R,6R)-6-(3-chlorophenyl)-5-(4-chlorophenyl)-4-((S)-1-(N-(2-fluorophenyl)cyclopropanesulfonamido)butan-2-yl)-3-oxomorpholin-2-yl)-N-(isopropylsulfonyl)acetamide or 2-((2R,5R,6R)-6-(3-chlorophenyl)-5-(4-chlorophenyl)-4-((5)-1-(N-(2-fluorophenyl)cyclopropanesulfonamido)butan-2-yl)-3-oxomorpholin-2-yl)-N-(isopropylsulfonyl)acetamide] gave a half-inhibitory concentration (IC50) of 1 nM.
In turn, `CC[C@@H](CS(=O)(=O)C(C)(C)C)N1C(=O)[C@@H](C[C@@H](O)CO)O[C@H](c2cccc(Cl)c2)[C@H]1c1ccc(Cl)cc1` (single isomer, unassigned) [Example 373] had an IC50 of 45 nM.
To `CC[C@@H](CS(=O)(=O)C(C)(C)C)N1C(=O)[C@@H](CC(=O)O)O[C@H](c2cccc(Cl)c2)[C@H]1c1ccc(Cl)cc1F` (single isomer, unassigned) [Example 317, 2-((2R,5R,6R)-4-((S)-1-(tert-Butylsulfonyl)butan-2-yl)-5-(4-chloro-2-fluorophenyl)-6-(3-chlorophenyl)-3-oxomorpholin-2-yl)acetic acid or 2-((2S,5R,6R)-4-((S)-1-(tert-butylsulfonyl)butan-2-yl)-5-(4-chloro-2-fluorophenyl)-6-(3-chlorophenyl)-3-oxomorpholin-2-yl)acetic acid] belongs 3 nM.
The value for `CC(C)(C)S(=O)(=O)C[C@H](CC(F)(F)F)N1C(=O)[C@@H](CC(N)=O)O[C@H](c2cccc(Cl)c2)[C@H]1c1ccc(Cl)cc1` (single isomer, unassigned) [Example 363, 22-((2R,5R,6R)-4-((S)-1-(tert-Butylsulfonyl)-4,4,4-trifluorobutan-2-yl)-6-(3-chlorophenyl)-5-(4-chlorophenyl)-3-oxomorpholin-2-yl)acetamide or 2-((2S,5R,6R)-4-((S)-1-(tert-butylsulfonyl)-4,4,4-trifluorobutan-2-yl)-6-(3-chlorophenyl)-5-(4-chlorophenyl)-3-oxomorpholin-2-yl)acetamide] was 23 nM; that for `CC[C@@H](CS(=O)(=O)c1ccccn1)N1C(=O)[C@@H](CC(=O)O)O[C@H](c2cccc(Cl)c2)[C@H]1c1ccc(Cl)cc1` (single isomer, unassigned) [Example 202, 2-((2R,5R,6R)-6-(3-chlorophenyl)-5-(4-chlorophenyl)-3-oxo-4-((S)-1-(pyridin-2-ylsulfonyl)butan-2-yl)morpholin-2-yl)acetic acid or 2-((2S,5R,6R)-6-(3-chlorophenyl)-5-(4-chlorophenyl)-3-oxo-4-((S)-1-(pyridin-2-ylsulfonyl)butan-2-yl)morpholin-2-yl)acetic acid] was 4 nM; that for `CC[C@@H](CN(c1ccccc1F)S(=O)(=O)C1(C)CC1)N1C(=O)[C@@H](CC(=O)O)O[C@H](c2cccc(Cl)c2)[C@H]1c1ccc(Cl)cc1` (single isomer, unassigned) [Example 175, 2-((2R,5R,6R)-6-(3-chlorophenyl)-5-(4-chlorophenyl)-4-((S)-1-(N-(2-fluorophenyl)-1-methylcyclopropanesulfonamido)butan-2-yl)-3-oxomorpholin-2-yl)acetic acid or 2-((2S,5R,6R)-6-(3-chlorophenyl)-5-(4-chlorophenyl)-4-((S)-1-(N-(2-fluorophenyl)-1-methylcyclopropanesulfonamido)butan-2-yl)-3-oxomorpholin-2-yl)acetic acid] was < 1 nM.
`CN(C)C(=O)C[C@H]1O[C@H](c2cccc(Cl)c2)[C@@H](c2ccc(Cl)cc2)N([C@H](CN(c2ccccc2F)S(=O)(=O)C2CC2)C2CC2)C1=O` (single isomer, unassigned) [Example 366, 2-((2R,5R,6R)-6-(3-Chlorophenyl)-5-(4-chlorophenyl)-4-((S)-1-cyclopropyl-2-(N-(2-fluorophenyl)cyclopropanesulfonamido)ethyl)-3-oxomorpholin-2-yl)-N,N-dimethylacetamide or 2-((2S,5R,6R)-6-(3-chlorophenyl)-5-(4-chlorophenyl)-4-((S)-1-cyclopropyl-2-(N-(2-fluorophenyl)cyclopropanesulfonamido)ethyl)-3-oxomorpholin-2-yl)-N,N-dimethylacetamide]: the 50% inhibitory concentration (IC50) was < 1 nM.
To `CC(C)(C)S(=O)(=O)C[C@H](C1CC1)N1C(=O)[C@@H](CC(N)=O)O[C@H](c2cccc(Cl)c2)[C@H]1c1ccc(Cl)cc1` (single isomer, unassigned) [Example 357, 2-((2R,5R,6R)-4-((S)-2-(tert-Butylsulfonyl)-1-cyclopropylethyl)-6-(3-chlorophenyl)-5-(4-chlorophenyl)-3-oxomorpholin-2-yl)acetamide or 2-((2S,5R,6R)-4-((S)-2-(tert-butylsulfonyl)-1-cyclopropylethyl)-6-(3-chlorophenyl)-5-(4-chlorophenyl)-3-oxomorpholin-2-yl)acetamide] belongs 6 nM; to `CC(C)(C#N)S(=O)(=O)C[C@H](C1CC1)N1C(=O)[C@@H](CC(=O)O)O[C@H](c2cccc(Cl)c2)[C@H]1c1ccc(Cl)cc1` (single isomer, unassigned) [Example 291, 2-((2R,5R,6R)-6-(3-Chlorophenyl)-5-(4-chlorophenyl)-4-((S)-2-((2-cyanopropan-2-yl)sulfonyl)-1-cyclopropylethyl)-3-oxomorpholin-2-yl)acetic acid or 2-((2S,5R,6R)-6-(3-chlorophenyl)-5-(4-chlorophenyl)-4-((S)-2-((2-cyanopropan-2-yl)sulfonyl)-1-cyclopropylethyl)-3-oxomorpholin-2-yl)acetic acid], < 1 nM; to `Cn1ccnc1C[C@H]1O[C@H](c2cccc(Cl)c2)[C@@H](c2ccc(Cl)cc2)N([C@H](CS(=O)(=O)C(C)(C)C)C2CC2)C1=O` [Example 402, (2R,5R,6R)-4-((S)-2-(tert-Butylsulfonyl)-1-cyclopropylethyl)-6-(3-chlorophenyl)-5-(4-chlorophenyl)-2-((1-methyl-1H-imidazol-2-yl)methyl)morpholin-3-one], 29 nM.
The value for `CC[C@@H](CN(c1ccccc1F)S(=O)(=O)C1CC1)N1C(=O)[C@@](C)(CC(=O)O)O[C@H](c2cccc(Cl)c2)[C@H]1c1ccc(Cl)cc1` (single isomer, unassigned) [Example 329, 2-((2R,5R,6R)-6-(3-Chlorophenyl)-5-(4-chlorophenyl)-4-((S)-1-(N-(2-fluorophenyl)cyclopropanesulfonamido)butan-2-yl)-2-methyl-3-oxomorpholin-2-yl)acetic acid or 2-((2S,5R,6R)-6-(3-chlorophenyl)-5-(4-chlorophenyl)-4-((S)-1-(N-(2-fluorophenyl)cyclopropanesulfonamido)butan-2-yl)-2-methyl-3-oxomorpholin-2-yl)acetic acid] was 138 nM; that for `C[C@@H](CS(=O)(=O)C(C)(C)C)N1C(=O)[C@H](CC(=O)NCCO)O[C@H](c2cccc(Cl)c2)[C@H]1c1ccc(Cl)cc1` (single isomer, unassigned) [Example 233, 2-((2S,5R,6R)-4-((S)-1-(tert-butylsulfonyl)propan-2-yl)-6-(3-chlorophenyl)-5-(4-chlorophenyl)-3-oxomorpholin-2-yl)-N-(2-hydroxyethyl)acetamide or 2-((2R,5R,6R)-4-((S)-1-(tert-butylsulfonyl)propan-2-yl)-6-(3-chlorophenyl)-5-(4-chlorophenyl)-3-oxomorpholin-2-yl)-N-(2-hydroxyethyl)acetamide] was 6 nM.
The value for `CC(C)(C)SC[C@H](C1CC1)N1C(=O)[C@@H](CC(=O)O)O[C@H](c2ccc(Br)c(Cl)c2)[C@H]1c1ccc(Cl)cc1` (single isomer, unassigned) [Example 323, 2-((2R,5R,6R)-6-(4-Bromo-3-chlorophenyl)-4-((S)-2-(tert-butylthio)-1-cyclopropylethyl)-5-(4-chlorophenyl)-3-oxomorpholin-2-yl)acetic acid or 2-((2S,5R,6R)-6-(4-bromo-3-chlorophenyl)-4-((S)-2-(tert-butylthio)-1-cyclopropylethyl)-5-(4-chlorophenyl)-3-oxomorpholin-2-yl)acetic acid] was 16 nM.
